Source: US20120232000A1, “METHODS AND COMPOSITIONS FOR PROMOTING REGENERATION BY INCREASING INTRACELLULAR SODIUM CONCENTRATION” (priority 2009, published 2012)
“Also recorded” adds a separate entry of the source.

Columns and labels:
Type in all cases: in vivo, Xenopus laevis
[1] = tested on: Xenopus tadpoles; assay: Observation of overall development and movement of treated animals; details: during pharmacological treatment in the tail assay
Source text: (§1) To characterize the temporal requirement of NaV1.2 function during regeneration, we looked to utilize pharmacological inhibitors of NaV1.2 that will enable us to vary the timing of the functional blockade. First, we determined whether chemical inhibition of NaV1.2 activity recapitulates its loss-of-function phenotype during regeneration. MS-222 (also known as tricaine) is a well-known inhibitor of VGSCs (Hedrick and Winmill, 2003) that blocks inward Na^+ currents (Frazier and Narahashi, 1975). […]. […] Importantly, the μM concentrations used for the tail assays were approximately ten-fold lower than what is usually used for amphibian anesthesia (generally in the mM range). Similar to the NaV1.2 RNAi experiment, the overall development and movement of the animals were normal during pharmacological treatment, and had no effect on primary tail formation during early embryogenesis. We conclude that NaV1.2 function is specifically required for regeneration, and that both pharmacological and molecular loss-of-function to selectively reveal the importance of NaV1.2.

[2] = tested on: Xenopus tail regeneration; assay: Tail regeneration assay, tails amputated at stages 40-41, scored at 7 days; details: for tail regeneration: treatment after amputation at st. 40, 7 days
Description: Xenopus laevis larvae were cultured using standard protocols approved for the care of experimental organisms. Tails at stages 40-41, or stages 45-47 (refractory period) (Nieuwkoop and Faber, 1967) were amputated under a dissecting microscope using a scalpel blade at the midpoint between the anus and the tip. Tadpoles were cultured in (0.1×MMR±inhibitor) at 22° C. for 7 days and scored for tail regeneration. Drug experiments were carried out at least in duplicate.
To quantify and compare regeneration efficiency of tadpoles treated with different reagents, the “Regeneration Index” (RI) was determined. The RI evaluates the efficiency of regeneration for each treatment and allows for comparison of the effect of various treatments to controls.
Individual animals for each specific treatment were each scored as follows:
Full: complete regeneration (indistinguishable from uncut controls).
Good: robust regeneration with minor defects (e.g., missing fin, curved axis).
Poor: poor regeneration (hypomorphic/defective regenerates).
For each treatment, the percentage of regenerates belonging to each category were calculated, and then multiplied by 3, 2, 1 or 0, respectively for, Full, Good, Poor and None. The resulting R1 for each condition tested ranges from 0 to 300, with 0 corresponding to no regeneration, and 300 for complete regeneration.
Xenopus laevis larvae were cultured via approved protocols (IACUC #M2008-08). Tails at stages 40-41, or stages 45-47 (refractory period) (Nieuwkoop and Faber, 1967) were amputated at the midpoint between the anus and the tip. Tadpoles were cultured in (0.1×MMR±reagent) at 22° C. for 7 days and scored for tail regeneration. […]

[3] = tested on: Xenopus tail regeneration during the refractory period; assay: Tail regeneration assay, tails amputated during the refractory period (stages 45-47)
[4] = tested on: NaV1.2 protein; assay: Immunohistochemistry of NaV1.2 protein in the regeneration bud
Source text: In order to better understand the role of NaV1.2, we examined its potential relationships with known regenerative pathways. First, we investigated the pathways potentially regulating NaV1.2 expression. […] However, in amputated tails treated with Concanamycin, a specific inhibitor of V-ATPase activity (Huss et al., 2002) that blocks regeneration (Adams et al., 2007), the expression of NaV1.2 protein was absent at 24 and 48 hpa (FIGS. 4A-4C). […] We next examined NaV1.2 protein expression during the refractory stages, an endogenous period during development in which tadpoles temporarily lose the ability of caudal regeneration (Beck et al., 2003). NaV1.2 protein was not detected in 24-hour tail stumps amputated during this non-regenerative state (FIG. 4D).
(§2) Xenopus embryos were fixed overnight in MEMFA, heated for 2 hrs at 65° C. in 50% formamide (to inactivate endogenous alkaline phosphatases), permeabilized in PBTr+0.1% Triton X100 for 30 min, and processed for immunohistochemistry using alkaline phosphatase secondary antibody (Levin, 2004) until signal was optimal and background minimal (usually 12 hrs). The expression profiles represent consensus patterns obtained from the analysis of 8-12 embryos at each stage. Pan-anti-NaV (Sigma S-8809), anti-acetylated a-tubulin (Sigma #T6793), and anti-phospho-H3 (Upstate #05-598) antibodies were used at 1:1000.

[5] = tested on: Na^+ influx into the regeneration bud; assay: Imaging of sodium flux with CoroNa Green indicator dye
Description: NaV1.2 is a membrane-bound Na^+ transporter that regulates the influx of Na^+ into cells (Yu and Catterall, 2003). Thus, we examined the functional consequences of Na^+ transport in regeneration using MS-222. […] In intact tails, a few randomly distributed cells appear positive for the CoroNa Green signal relative to the majority of the tail population (FIG. 3A). […] When the amputated tails were treated with the NaV inhibitor, MS-222, the CoroNa Green signal was abolished (FIG. 3C, p<0.02), confirming that inhibition of NaV1.2 function abrogates Na^+ influx into the bud.
(§3) At 23 hpa, tadpoles were incubated in 90 μM of CoroNa Green indicator dye (Invitrogen) in 0.1×MMR for 45 minutes and washed twice in 0.1×MMR+30 uM BTS (to immobilize tadpole movement). At 24 hpa, the CoroNa Green signal was excited at […] and fluorescence emission data was collected at […]. Data was analyzed using IPLab software. For induction of Na^+ current, 0.1×MMR was supplemented with sodium gluconate (Sigma) to increase the Na^+ concentration to 90 mM. For refractory period analysis, tails were amputated at st. 47, at 18 hpa, and animals were treated with or without 90 mM Na^+ and 20 μM monensin (Sigma) in 0.1×MMR with 90 μM CoroNa Green for 45 minutes and washed twice in 0.1×MMR+50 uM BTS. Imaging of Vmem using DiBAC4(3) (Invitrogen) was performed exactly as described in (Adams et al., 2007).

[6] = tested on: Msx1; assay: RNA in situ hybridization of Msx1 in the regeneration bud; details: 48 hpa, MS-222 after amputation
Source text: (§4) RNA expression of Notch, Msx1, and BMP components can be observed after 24 hpa in the regenerating tail tissues. We performed in situ hybridization using gene-specific RNA probes to examine the expression patterns of Notch and Msx1 in the regeneration bud after treatment with MS-222. In wild-type regeneration buds at 48 hpa, Notch1 is normally expressed in the neural ampulla and in the mesenchymal region of the regeneration bud (FIGS. 4F and 4H). […] At 48 hpa, Msx1 was expressed in the neural ampulla and at the epithelial edge of the regenerating tail tip (FIGS. 4J and 4L). When NaV activity was blocked, Msx1 expression was abolished (FIGS. 4K and 4M).
(§5) Embryos were fixed in MEMFA (Sive et al., 2000) and dehydrated in methanol. In situ hybridization was carried out according to standard protocols (Harland, 1991) with probes to: NaV1.2 (AY121368), NaV1.5 (Armisen et al., 2002), Notch1 (Coffman et al., 1990), and Msx1 (Feledy et al., 1999).

[7] = tested on: membrane voltage of regeneration bud cells; assay: Imaging of membrane voltage with the voltage dye DiBAC4(3); details: 24 hpa, versus control
Source text: To gain a detailed mechanistic understanding of NaV1.2 activity, we examined the consequences of modulating Na^+ ion transport in the regenerating tail. During development, the intact tail is hyper-polarized with a few depolarized cells that are randomly distributed (Adams et al., 2007). However, after tail amputation, the presumptive regeneration bud becomes highly depolarized. […]. If the bud is polarized at this timepoint, then regeneration proceeds normally; if the bud remains depolarized (as when V-ATPase is inactivated, either during the refractory period or by Concanamycin), then regeneration fails. Because VGSC activity is also a well-known major determinant of a cell's membrane potential level, we hypothesized that loss of NaV1.2 activity could alter the membrane voltage state of the regeneration buds at 24 hpa.
as §3, with “47, at 18 hpa, and animals were treated with or without 90 mM Na^+ and 20 μM monensin (Sigma) in 0.1×MMR with 90 μM CoroNa Green for 45 minutes and washed twice in 0.1×MMR+50 uM BTS. Imaging of Vmem using DiBAC4(3) (Invitrogen) was performed exactly as described in (Adams et al., 2007).” left out

[8] = tested on: BMP4; assay: Expression level of BMP4 in the regeneration bud (data not shown); details: in the presence of MS-222, data not shown
Source text: as §4

[9] = tested on: H3P-positive (mitotic) cells; assay: Anti-H3P immunohistochemistry of mitotic cells in amputated tails; details: 48 hpa, versus control siblings
Source text: To understand the cellular basis for regenerative failure in animals with loss of NaV1.2 function, we examined proliferation in MS-222-treated amputated tails. During development, mitotic cells are observed to be randomly located in the growing tail. […]. We quantified the number and distribution of proliferating cells in regenerating tails at 48 hpa using an antibody to phosphorylated Histone 3B (H3P), a marker of the G2/M transition of the cell cycle that identifies mitotic cells in Xenopus and many other systems (Adams et al., 2007; Saka and Smith, 2001). […]. Many H3P-positive cells are seen in the wild-type regeneration bud (FIG. 3E) but very few are detected in MS-222 treated buds (FIG. 3F).
as §2

[10] = tested on: Notch1; assay: RNA in situ hybridization of Notch1 in the regeneration bud; details: 48 hpa, MS-222 after amputation
Source text: as §4, §5

[11] = tested on: axons of the regenerate; assay: Acetylated α-tubulin staining of axons in tail regenerates; details: 72 hpa (3-day) tails, MS-222 treated
Source text: It has long been known that regenerative growth requires proper innervation (Singer, 1952, 1965). Thus, we asked whether NaV1.2 regulates neural regeneration by examining the neuronal pattern in the amputated tail of tadpoles treated with MS-222. In normal 3-day old tail regenerates, axons appear in bundles that grow and concentrate to the end of the regenerate, in a direction parallel to the anterior-posterior axis (FIG. 3G).
as §2

[12] = tested on: BMP2; assay: Expression level of BMP2 in the regeneration bud (data not shown); details: in the presence of MS-222, data not shown
Source text: as §4

[13] = tested on: Delta; assay: Expression level of Delta in the regeneration bud (data not shown); details: in the presence of MS-222, data not shown
[14] = tested on: regeneration bud; assay: Apoptosis in the regeneration bud (data not shown); details: MS-222 after tail amputation
Source text: as §1

[15] = 24 hpa regeneration bud, MS-222 treated

CN[C@@H]1C[C@H]2O[C@@](C)([C@@H]1OC)n1c3ccccc3c3c4c(c5c6ccccc6n2c5c31)C(=O)NC4 [Staurosporine]
overall development and movement of the animals [1]: otherwise unaffected
regenerative ability relative to controls ([2]; 10 nM STS on amputated tails): 28 % of controls
tail regeneration [2]: strong reduction

insulin
animals showing good or full regeneration ([3]; insulin at 0 hours post amputation, assayed at 7 days, control 16%): 39%
Regeneration Index (RI) ([3]; insulin at 0 hours post amputation, assayed at 7 days, control RI=62, RI of 300 = full regeneration): 118

C/C=C/[C@H]1O[C@@](O)([C@@H](C)[C@H](O)[C@H](C)[C@H]2OC(=O)/C(OC)=C/C(C)=C/[C@@H](C)[C@@H](O)[C@@H](CC)[C@@H](O)[C@H](C)C/C(C)=C/C=C/[C@@H]2OC)C[C@@H](O)[C@@H]1C [Concanamycin]
NaV1.2 protein expression in the regeneration bud ([4]; 24 hpa): absent
NaV1.2 protein expression in the regeneration bud ([4]; 48 hpa): absent

CC[C@@]1([C@@H]2O[C@@H]([C@H]3O[C@@](O)(CO)[C@H](C)C[C@@H]3C)C[C@@H]2C)CC[C@H]([C@]2(C)CC[C@]3(C[C@H](O)[C@@H](C)[C@@H]([C@@H](C)[C@@H](OC)[C@H](C)C(=O)O)O3)O2)O1 [monensin]
CoroNa Green signal at the amputation site ([5]; refractory tails at 19 hpa, after one hour of 20 uM monensin in 90 mM Na^+ medium): strong CoroNa Green fluorescence; also recorded: significantly stronger CoroNa Green signal
Regeneration Index (RI) ([3]; 20 uM monensin in medium containing 90 mM Na^+ for one hour at 18 hpa, refractory controls 11.5, n=44): 59.1
increase of regeneration over the control ([3]; 20 μM monensin with 90 mM Na^+, 1 hour at 18 hpa): 3 fold
tadpoles with induced regeneration ([3]; 20 μM monensin with 90 mM Na^+, 1 hour at 18 hpa, 7 dpa, controls 11%): 36%
regenerated tails showing good to full regeneration ([3]; 20 μM monensin with 90 mM Na^+, 1 hour at 18 hpa, share of the regenerating tails): 45%
regenerative ability ([3]; monensin alone, without high extracellular Na^+, data not shown): did not improve regenerative ability

CCOC(=O)c1cccc(N)c1.CS(=O)(=O)O [MS-222]
Msx1 RNA expression [6]: abolished; also recorded: absent
change of membrane voltage in regeneration bud cells [7]: did not observe any changes in membrane voltage
CoroNa Green signal / Na^+ entry into the bud [5, 15]: abolished; also recorded: blocks Na^+ entry into the bud
decrease in CoroNa Green signal versus control buds [5, 15]: 70%
level of BMP4 [8]: greatly reduced
decrease in the number of mitotic cells in the regeneration bud region [9]: 90%
Notch1 RNA expression [10]: greatly reduced; also recorded: greatly down-regulated and mis-localized
axon pattern and quantity in the regenerate [11]: axons to extend circumferentially along the edge of the regeneration bud; also recorded: overall quantity of neurons appeared to be reduced
level of BMP2 [12]: greatly reduced
level of Delta [13]: greatly reduced
overall development and movement of the animals [1]: normal
apoptosis in the bud [14]: did not induce significant apoptosis
Regeneration Index (RI) ([2]; MS-222 (250 μM per FIG. 2B) immediately after tail amputation, scored at 7 days, RI 0-300, controls RI=265): 62
effect on regeneration ([2]; MS-222 added at 48 hpa, after regenerative outgrowth has begun): no effect
tails that failed to regenerate ([2]; MS-222 for the first 48 hpa): 78%
tadpoles in which tail regeneration was prevented ([2]; MS-222 for the first 24 hours post amputation): 45%
tails with inhibited regeneration ([2]; MS-222 through the entire 7 days of the assay): 82%
tail regeneration [2]: failed to regenerate; also recorded: inhibition of regeneration is dosage-dependent
